Two molecules from patent publication US12077503B2, “Substituted cyclic amides and their use as herbicides” (FMC CORPORATION, priority 2015, dated 2024) can be followed below.

Holding throughout (assay type): in vivo
The test system of assay [1] is Kochia (Kochia scoparia). Put plainly: Test A preemergence. The settings on record: Bassia scoparia, pre-emergence, 240 h; for pest or weed control at 125 g/ha: 125 g ai/ha; for pest or weed control at 500 g/ha: 500 g ai/ha. The procedure, abridged:
(§1)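 Ratings of 0 (no effect) to 100 (complete control) come from visual comparison with untreated controls roughly 10 d after treatment. Test chemicals, formulated in a non-phytotoxic solvent mixture with surfactant, were applied either as a preemergence directed soil spray on seeded soil or postemergence to one- to two-leaf plants 2 to 10 cm tall.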

Assay [2] concerns barnyardgrass (Echinochloa crus-galli). Put plainly: Test A preemergence. The settings on record: Echinochloa crus-galli, pre-emergence, 240 h; for pest or weed control at 125 g/ha: 125 g ai/ha; for pest or weed control at 500 g/ha: 500 g ai/ha. The procedure, abridged:
as §1

The test system of assay [3] is giant foxtail (Setaria faberii). Put plainly: Test A preemergence. Conditions: Setaria faberi, pre-emergence, 240 h; for pest or weed control at 125 g/ha: 125 g ai/ha; for pest or weed control at 500 g/ha: 500 g ai/ha. In short, it runs like this:
as §1

Assay [4] has as its system pigweed (Amaranthus retroflexus). Put plainly: Test A preemergence. The settings on record: Amaranthus retroflexus, pre-emergence, 240 h; for pest or weed control at 125 g/ha: 125 g ai/ha; for pest or weed control at 500 g/ha: 500 g ai/ha.
In assay [5] the test system is ragweed (common ragweed, Ambrosia elatior). Put plainly: Test A preemergence. Conditions: Ambrosia artemisiifolia, pre-emergence, 240 h; for pest or weed control at 500 g/ha: 500 g ai/ha, preemergence, read-out: Ragweed plant response rating. In short, it runs like this: as §1
Assay [6] deals with ryegrass, Italian (Italian ryegrass, Lolium multiflorum). Nature of the assay: Test A preemergence. The settings on record: Lolium multiflorum, pre-emergence, 240 h; for pest or weed control at 500 g/ha: 500 g ai/ha, preemergence, read-out: Ryegrass, Italian plant response rating. In short, it runs like this:
as §1

Assay [7] deals with Galium (catchweed bedstraw, Galium aparine). Nature of the assay: Test A postemergence. The settings on record: Galium, post-emergence, 240 h, Postemergence; for pest or weed control at 125 g/ha: 125 g ai/ha. The procedure, abridged: as §1
Assay [8] deals with Kochia (Kochia scoparia). Put plainly: Test A postemergence. The settings on record: Bassia scoparia, post-emergence, 240 h, Postemergence; for pest or weed control at 125 g/ha: 125 g ai/ha. The procedure, abridged: as §1
Assay [9] concerns giant foxtail (Setaria faberii). Nature of the assay: Test A postemergence. The settings on record: Setaria faberi, post-emergence, 240 h, Postemergence; for pest or weed control at 125 g/ha: 125 g ai/ha. In short, it runs like this:
as §1

Assay [10] deals with pigweed (Amaranthus retroflexus). Nature of the assay: Test A postemergence. The settings on record: Amaranthus retroflexus, post-emergence, 240 h, Postemergence; for pest or weed control at 125 g/ha: 125 g ai/ha. In short, it runs like this:
as §1

The subject of assay [11] is wheat (Triticum aestivum). Nature of the assay: Test A postemergence. The settings on record: Triticum aestivum, post-emergence, 240 h, Postemergence; for plant injury at 125 g/ha: 125 g ai/ha. The procedure, abridged:
as §1

Assay [12] deals with barnyardgrass (Echinochloa crus-galli). Nature of the assay: Test B flooded paddy test. The settings on record: Echinochloa crus-galli, Flood, 250 g ai/ha, read-out: Barnyardgrass plant response rating. The procedure, abridged: (§2)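 Response scored visually against untreated controls, 0 = no effect and 100 = complete control, 13–15 d after treatment in the greenhouse. Compounds added to paddy water held 3 cm above soil surface. Treatment given at 2-leaf stage.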

For assay [13], the system named is ducksalad (Heteranthera limosa). Nature of the assay: Test B flooded paddy test. Conditions: Heteranthera limosa, Flood, 250 g ai/ha, read-out: Ducksalad plant response rating. In short, it runs like this: as §2
In another assay the test system is rice (Oryra sativa). Nature of the assay: Test B flooded paddy test. Conditions: Oryza sativa, Flood, 250 g ai/ha, read-out: Rice plant response rating. In short, it runs like this:
as §2

The test system of assay [14] is sedge, umbrella (small-flower umbrella sedge, Cyperus difformis). Nature of the assay: Test B flooded paddy test. Conditions: Cyperus difformis, Flood, 250 g ai/ha, read-out: Sedge, Umbrella plant response rating. The procedure, abridged: as §2
Where [15] appears, read: preemergence, 0 to 100 scale where 0 is no effect and 100 is complete control, read-out: Kochia plant response rating.
[16] abbreviates: preemergence, 0 to 100 scale where 0 is no effect and 100 is complete control, read-out: Barnyardgrass plant response rating.
Setting [17] is: preemergence, 0 to 100 scale where 0 is no effect and 100 is complete control, read-out: Foxtail, Giant plant response rating.
[18] abbreviates: preemergence, 0 to 100 scale where 0 is no effect and 100 is complete control, read-out: Pigweed plant response rating.
[19] abbreviates: visual injury rating about 10 d after treatment, 0 to 100 scale (0 no effect, 100 complete control).
Setting [20] is: scale of 0 to 100 where 0 is no effect and 100 is complete control.
Setting [21] is: 0 to 100 scale where 0 is no effect and 100 is complete control.

Read-outs that look alike come from different tables or passages of the source.

In the case of `CN1C[C@H](c2ccc(C(F)(F)F)cc2)[C@@H](C(=O)Nc2cccc(F)c2Cl)C1=O` [Compound 938], the pest or weed control at 125 g/ha came out at 70% with Kochia (Kochia scoparia) [1] (setting [15]); 90% in assay [2] (setting [16]); 90% in [3] (setting [17]); 80% in [4] (setting [18]); 50% in assay [7] (visual injury after approximately 10 d, 0 to 100 scale where 0 is no effect and 100 is complete control, read-out: Plant response rating, Galium); 40% with Kochia (Kochia scoparia) [8] (visual injury after approximately 10 d, 0 to 100 scale where 0 is no effect and 100 is complete control, read-out: Plant response rating, Kochia). Also, the pest or weed control at 125 g/ha in assay [9] (visual injury after approximately 10 d, 0 to 100 scale where 0 is no effect and 100 is complete control, read-out: Plant response rating, Foxtail, Giant) was 80%; in [10] (visual injury after approximately 10 d, 0 to 100 scale where 0 is no effect and 100 is complete control, read-out: Plant response rating, Pigweed), 50%. In addition, the pest or weed control at 500 g/ha turned out to be 80% in the assay with Kochia (Kochia scoparia) [1] (preemergence, visual injury rating about 10 d after treatment, 0 to 100 scale (0 no effect, 100 complete control), read-out: Kochia plant response rating); 90% in [2] (preemergence, visual injury rating about 10 d after treatment, 0 to 100 scale (0 no effect, 100 complete control), read-out: Barnyardgrass plant response rating); 90% in [3] (preemergence, visual injury rating about 10 d after treatment, 0 to 100 scale (0 no effect, 100 complete control), read-out: Foxtail, Giant plant response rating); 90% in assay [4] (preemergence, visual injury rating about 10 d after treatment, 0 to 100 scale (0 no effect, 100 complete control), read-out: Pigweed plant response rating); 20% in assay [5] (setting [19]); 30% in [6] (setting [19]). Besides, in assay [11] (visual injury after approximately 10 d, 0 to 100 scale where 0 is no effect and 100 is complete control, read-out: Plant response rating, Wheat), the plant injury at 125 g/ha amounted to 40%. Besides, the pest or weed control at 250 g/ha in assay [12] (setting [20]) turned out to be 40%; in assay [13] (setting [20]), 60%; in the assay with rice (Oryra sativa) (setting [20]) it was 0%; in [14] (setting [20]), 0%.
In the case of `Cc1cc(F)cc([C@H]2CNC(=O)[C@@H]2C(=O)Nc2cccc(F)c2F)c1` [Compound 1309], the pest or weed control at 500 g/ha in the assay on Kochia (Kochia scoparia) [1] (setting [15]) turned out to be 60%; in assay [2] (setting [16]) it was 90%; in assay [3] (setting [17]) it was 90%; in assay [4] (setting [18]), 20%; in [5] (setting [21]), 50%; in assay [6] (setting [21]), 20%. Moreover, the pest or weed control at 500 g/ha in assay [7] (500 g ai/ha, visual injury, 0 to 100 scale (0 no effect, 100 complete control), approx. 10 d, read-out: Plant response rating, Galium) is 50%; with Kochia (Kochia scoparia) [8] (500 g ai/ha, visual injury, 0 to 100 scale (0 no effect, 100 complete control), approx. 10 d, read-out: Plant response rating, Kochia) it was 50%; in [9] (500 g ai/ha, visual injury, 0 to 100 scale (0 no effect, 100 complete control), approx. 10 d, read-out: Plant response rating, Foxtail, Giant), 70%; in assay [10] (500 g ai/ha, visual injury, 0 to 100 scale (0 no effect, 100 complete control), approx. 10 d, read-out: Plant response rating, Pigweed), 0%. Further, the pest or weed control at 125 g/ha with Kochia (Kochia scoparia) [1] (Preemergence, 0 to 100 scale (0 no effect, 100 complete control), read-out: Plant response rating, Kochia) is 60%; in [2] (Preemergence, 0 to 100 scale (0 no effect, 100 complete control), read-out: Plant response rating, Barnyardgrass), 90%; in assay [3] (Preemergence, 0 to 100 scale (0 no effect, 100 complete control), read-out: Plant response rating, Foxtail, Giant), 80%; in assay [4] (Preemergence, 0 to 100 scale (0 no effect, 100 complete control), read-out: Plant response rating, Pigweed), 0%; in assay [5] (Preemergence, 125 g ai/ha, 0 to 100 scale (0 no effect, 100 complete control), read-out: Plant response rating, Ragweed), 40%; in assay [6] (Preemergence, 125 g ai/ha, 0 to 100 scale (0 no effect, 100 complete control), read-out: Plant response rating, Ryegrass, Italian), 0%. Besides, the pest or weed control at 125 g/ha in [7] (visual rating about 10 d after treatment, read-out: Galium plant response rating (0 to 100 scale)) came to 30%; in the assay with Kochia (Kochia scoparia) [8] (visual rating about 10 d after treatment, read-out: Kochia plant response rating (0 to 100 scale)), 0%; in assay [9] (visual rating about 10 d after treatment, read-out: Foxtail, Giant plant response rating (0 to 100 scale)) it was 30%; in [10] (visual rating about 10 d after treatment, read-out: Pigweed plant response rating (0 to 100 scale)), 0%. Moreover, the plant injury at 125 g/ha in assay [11] (visual rating about 10 d after treatment, read-out: Wheat plant response rating (0 to 100 scale)) is 20%. The plant injury at 500 g/ha in assay [11] (500 g ai/ha, visual injury, 0 to 100 scale (0 no effect, 100 complete control), approx. 10 d, read-out: Plant response rating, Wheat) amounted to 20%. Moreover, the pest or weed control at 250 g/ha in assay [12] (setting [21]) came to 60%; in assay [13] (setting [21]) it was 100%; with rice (Oryra sativa) (setting [21]) it was 20%; in assay [14] (setting [21]), 0%.
